Reference: patent US12528784B2, “Alkynyl-(heteroaryl)-carboxamide HCN1 inhibitors” (Hoffmann-La Roche Inc., priority 2019, dated 2026)

Columns and labels:
Format in all cases: cell-based
HCN3 = molecular target: T1, HCN3 (Homo sapiens, UniProt Q9P1Z3); experiment: HCN3 automated patch clamp current inhibition assay (Ionworks Barracuda); conditions: HEK-293 cells stably expressing HCN3; current inhibition during a hyperpolarizing pulse of -100 mV
T1 construct: expressed in transfected cells
T1 sequence (Q9P1Z3 1-774): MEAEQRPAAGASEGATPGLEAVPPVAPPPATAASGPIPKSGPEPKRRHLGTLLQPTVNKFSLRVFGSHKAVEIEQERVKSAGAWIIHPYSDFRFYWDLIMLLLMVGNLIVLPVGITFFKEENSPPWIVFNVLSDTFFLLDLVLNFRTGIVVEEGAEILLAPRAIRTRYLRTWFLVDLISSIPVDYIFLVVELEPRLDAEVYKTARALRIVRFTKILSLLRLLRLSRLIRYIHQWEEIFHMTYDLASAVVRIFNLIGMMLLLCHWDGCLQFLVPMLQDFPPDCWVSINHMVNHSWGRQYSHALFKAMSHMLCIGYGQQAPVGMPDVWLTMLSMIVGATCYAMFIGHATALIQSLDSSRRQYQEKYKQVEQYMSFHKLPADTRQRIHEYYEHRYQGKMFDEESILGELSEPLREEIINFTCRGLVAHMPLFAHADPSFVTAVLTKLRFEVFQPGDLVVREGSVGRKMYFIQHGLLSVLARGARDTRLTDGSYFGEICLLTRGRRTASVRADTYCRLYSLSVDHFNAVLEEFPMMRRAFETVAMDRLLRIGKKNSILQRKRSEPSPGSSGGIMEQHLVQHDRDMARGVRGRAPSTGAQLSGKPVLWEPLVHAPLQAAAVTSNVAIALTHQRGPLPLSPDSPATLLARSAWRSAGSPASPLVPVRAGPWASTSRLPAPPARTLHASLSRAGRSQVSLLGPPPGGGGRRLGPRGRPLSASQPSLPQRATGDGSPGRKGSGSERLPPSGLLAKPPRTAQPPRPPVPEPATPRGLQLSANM
Description: (§1) In vitro, high-throughput cellular electrophysiology was employed to detect voltage- and use-dependence of compounds in single concentration screening and IC50 determination for library and medicinal chemistry profiling compounds in 384 well plates.
(§2) Cell cultures were maintained in DMEM/F12 cell growth media containing FBS and appropriate antibiotics at 37° C., 5% CO2 for a maximum of 20 passages. At a time point of 40-72 hours prior to assay, the expression of HCN protein in the cells is induced by addition of tetracyclin. Cells may be incubated at 27° C. for 2-24 hours of induction. […] Cells were harvested at 80% confluency and resuspended in extracellular buffer and added to wells. A freshly prepared Escin solution was added to intracellular buffer and applied to establish whole cell recording via perforated patch clampling by APC.
(§3) Currents through activated channels were measured directly by APC by employing hyperpolarizing voltage steps. The activation window was increased and stabilized by the addition of cell permeable Br-cAMP. Baselines were established for both use- and voltage-dependence protocols using a −30 mV holding potential and multiple test pulses at −100 mV or by 20 mV steps from −120 to 0 mV, respectively. Test compounds were added after baseline recordings followed by a 10 min incubation, voltage-dependency protocol recording, and use-dependency recording. Data was corrected for baseline and rundown (well based) and normalized for % inhibition (plate based). Five previously reported HCN inhibitors of varying potencies and selectivities and zatebradine were used for run to run and plate to plate quality controls. […] Percent inhibition was analysed at −80, −100, −120 mV of the voltage-dependency protocol and at pulse 0 and 50 of the use-dependency protocols. Selectivity was assessed against HCN2, HCN3, and HCN4 overexpressing cell lines using similar methods. As HCN4 has a slower activation than the other HCN channels, activation was extended to achieve steady state activation.

HCN1 = molecular target: T2, HCN1 (Homo sapiens, UniProt O60741); experiment: HCN1 automated patch clamp current inhibition assay (Ionworks Barracuda); conditions: HEK-293 cells stably expressing HCN1; current inhibition during a hyperpolarizing pulse of -100 mV
T2 construct: expressed in transfected cells
T2 sequence (O60741 1-890): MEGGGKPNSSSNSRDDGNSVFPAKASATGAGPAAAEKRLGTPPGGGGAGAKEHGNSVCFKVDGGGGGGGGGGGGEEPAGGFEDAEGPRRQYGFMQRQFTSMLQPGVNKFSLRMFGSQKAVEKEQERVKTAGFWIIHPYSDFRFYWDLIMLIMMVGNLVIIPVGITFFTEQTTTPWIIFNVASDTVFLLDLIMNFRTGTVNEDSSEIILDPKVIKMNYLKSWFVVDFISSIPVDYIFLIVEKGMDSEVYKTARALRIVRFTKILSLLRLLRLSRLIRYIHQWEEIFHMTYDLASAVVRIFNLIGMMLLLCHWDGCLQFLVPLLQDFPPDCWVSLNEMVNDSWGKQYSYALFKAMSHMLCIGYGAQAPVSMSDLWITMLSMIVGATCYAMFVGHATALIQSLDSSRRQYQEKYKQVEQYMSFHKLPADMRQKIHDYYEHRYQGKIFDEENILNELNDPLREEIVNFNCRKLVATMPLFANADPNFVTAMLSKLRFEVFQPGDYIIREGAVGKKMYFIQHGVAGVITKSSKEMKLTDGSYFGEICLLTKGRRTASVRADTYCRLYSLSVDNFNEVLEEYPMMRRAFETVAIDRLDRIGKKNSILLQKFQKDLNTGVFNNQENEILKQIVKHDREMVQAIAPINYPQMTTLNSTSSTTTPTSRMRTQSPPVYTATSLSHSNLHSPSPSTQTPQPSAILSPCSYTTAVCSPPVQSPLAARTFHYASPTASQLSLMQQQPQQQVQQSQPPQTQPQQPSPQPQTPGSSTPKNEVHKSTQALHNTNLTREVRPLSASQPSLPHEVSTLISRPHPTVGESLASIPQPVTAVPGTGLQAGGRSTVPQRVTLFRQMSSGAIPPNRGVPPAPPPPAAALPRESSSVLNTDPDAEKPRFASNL
Description: as §1, §2, §3

HCN4 = molecular target: T3, HCN4 (Homo sapiens, UniProt Q9Y3Q4); experiment: HCN4 automated patch clamp current inhibition assay (Ionworks Barracuda); conditions: HEK-293 cells stably expressing HCN4; current inhibition during a hyperpolarizing pulse of -100 mV
T3 construct: expressed in transfected cells
T3 sequence (Q9Y3Q4 1-1203): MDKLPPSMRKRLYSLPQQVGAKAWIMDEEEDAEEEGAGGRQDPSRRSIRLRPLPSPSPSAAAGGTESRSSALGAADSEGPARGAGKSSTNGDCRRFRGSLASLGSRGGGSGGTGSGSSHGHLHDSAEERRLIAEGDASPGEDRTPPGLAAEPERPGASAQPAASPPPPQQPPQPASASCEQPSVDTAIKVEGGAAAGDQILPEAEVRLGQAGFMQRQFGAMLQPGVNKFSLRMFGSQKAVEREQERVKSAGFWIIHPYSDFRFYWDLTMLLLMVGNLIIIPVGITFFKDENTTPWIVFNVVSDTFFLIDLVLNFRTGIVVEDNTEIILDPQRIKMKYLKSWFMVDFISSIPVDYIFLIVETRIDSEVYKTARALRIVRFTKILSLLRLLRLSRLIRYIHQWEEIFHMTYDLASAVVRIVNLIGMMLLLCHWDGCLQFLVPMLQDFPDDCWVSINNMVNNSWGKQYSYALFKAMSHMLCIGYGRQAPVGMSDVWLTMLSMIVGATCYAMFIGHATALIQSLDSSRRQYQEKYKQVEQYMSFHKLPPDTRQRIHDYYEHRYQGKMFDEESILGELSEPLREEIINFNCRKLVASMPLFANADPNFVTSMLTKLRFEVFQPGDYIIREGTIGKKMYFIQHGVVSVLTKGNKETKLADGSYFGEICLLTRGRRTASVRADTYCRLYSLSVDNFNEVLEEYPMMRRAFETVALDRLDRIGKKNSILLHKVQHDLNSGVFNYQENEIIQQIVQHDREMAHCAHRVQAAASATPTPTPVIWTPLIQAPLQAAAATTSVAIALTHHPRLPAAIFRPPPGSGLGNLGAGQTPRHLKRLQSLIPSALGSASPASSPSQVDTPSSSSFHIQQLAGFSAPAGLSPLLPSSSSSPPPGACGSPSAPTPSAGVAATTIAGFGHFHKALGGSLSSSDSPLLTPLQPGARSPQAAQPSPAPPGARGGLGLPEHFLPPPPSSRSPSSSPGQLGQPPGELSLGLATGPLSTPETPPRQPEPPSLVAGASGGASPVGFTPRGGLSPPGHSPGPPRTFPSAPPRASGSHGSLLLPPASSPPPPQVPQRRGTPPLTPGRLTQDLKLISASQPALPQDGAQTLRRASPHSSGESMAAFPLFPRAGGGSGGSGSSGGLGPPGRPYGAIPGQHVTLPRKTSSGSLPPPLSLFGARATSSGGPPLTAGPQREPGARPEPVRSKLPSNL
Description: as §1, §2, §3

IC50 (HCN3) [µM]	IC50 (HCN1) [µM]	IC50 (HCN4) [µM]	Structure (SMILES)
> 40	0.903		Cc1ccc(-n2c(C(N)=O)nc(C#Cc3cccc4c3OCO4)c2C)cn1 [Example 13, 4-(Benzo[d][1,3]dioxol-4-ylethynyl)-5-methyl-1-(6-methylpyridin-3-yl)-1H-imidazole-2-carboxamide]
> 40	1.94		Cc1ccc(-n2c(C(N)=O)nc(C#Cc3cccc(Cl)n3)c2C)cn1 [Example 14, 4-((6-Chloropyridin-2-yl)ethynyl)-5-methyl-1-(6-methylpyridin-3-yl)-1H-imidazole-2-carboxamide]
> 40	11.2		Cc1ccc(-n2c(C(N)=O)nc(C#Cc3ccncc3)c2C)cn1 [Example 21, 5-Methyl-1-(6-methyl-3-pyridyl)-4-[2-(4-pyridyl)ethynyl]imidazole-2-carboxamide]
20.5	0.125	> 40	Cc1cncc(-n2c(C(N)=O)nc(C#Cc3ccnc(Cl)c3C)c2C)c1 [Example 25, 4-[2-(2-Chloro-3-methyl-4-pyridyl)ethynyl]-5-methyl-1-(5-methyl-3-pyridyl)imidazole-2-carboxamide]
> 40	0.229	> 40	Cc1ccc(-c2c(C(N)=O)nc(C#Cc3cccc(Cl)c3C)n2C)cn1 [Example 44, 2-[2-(3-Chloro-2-methyl-phenyl)ethynyl]-1-methyl-5-(6-methyl-3-pyridyl)imidazole-4-carboxamide]

More lines, now with the values behind:

Structure (SMILES)	IC50 (HCN3) [µM]	IC50 (HCN1) [µM]	IC50 (HCN4) [µM]
Cc1ccc(-n2c(C(N)=O)nc(C#Cc3cc(Cl)ccn3)c2C)cn1 [Example 18, 4-((4-Chloropyridin-2-yl)ethynyl)-5-methyl-1-(6-methylpyridin-3-yl)-1H-imidazole-2-carboxamide]	> 40	4.1	
Cc1ccc(-c2c(C(N)=O)nc(C#Cc3ccnc(Cl)c3C)n2C)cn1 [Example 33]	> 40	0.947	> 40
Cc1ccc(-c2c(C(N)=O)nc(C#Cc3cccc(Cl)c3)n2C)cn1 [Example 34, 2-[2-(3-Chlorophenyl)ethynyl]-1-methyl-5-(6-methyl-3-pyridyl)imidazole-4-carboxamide]	4.9	0.099	> 40
Cc1ccc(-n2c(C(N)=O)nc(C#Cc3ccccc3)c2C)cc1 [Example 37, 5-Methyl-4-(phenylethynyl)-1-(p-tolyl)-1H-imidazole-2-carboxamide]	> 40	3.12	
Cc1c(C#Cc2ccnc(Cl)c2)nc(C(N)=O)n1-c1ccc(F)cc1F [Example 41, 4-(2-Chloro-pyridin-4-ylethynyl)-1-(2,4-difluoro-phenyl)-5-methyl-1H-imidazole-2-carboxylic Acid Amide]	> 40	17.4	
Cc1ccc(-n2cc(C#Cc3ccnc(Cl)c3)nc2C(N)=O)cn1 [Example 43, 4-((2-Chloropyridin-4-yl)ethynyl)-1-(6-methylpyridin-3-yl)-1H-imidazole-2-carboxamide]	> 40	2.52	
